According to article PMC7719179, “Small molecule inhibition of Dynamin-dependent endocytosis targets multiple niche signals and impairs leukemia stem cells” (Nature Communications, 2020):
Where “and” joins values, the source holds several entries; their conditions need not be identical. Equal entries are not always repeated. Where two headings read alike, the source gives them in different places.

What was measured:
[1] = tested on: GFP^hi DN3a thymocytes; assay: Cell cycle-restricted GFP^hi DN3a thymocytes in treated H2B-GFP;Lmo2^Tg mice; format: in vivo, mouse
[2] = Relative viability of human CD34+ hematopoietic stem and progenitors, 48 h; format: cell-based; set-up: Relative % viable cells: dose or concentration left out as unconfirmed
Protocol: (§1) Supplementary Figure 7. Efficacy of Dynole 34-2 for human T-ALL. a, b, Relative viability (%) of patient-derived (a ) ETP- ALL1 and (b) T-ALL 2 xenografts treated with increasing concentration of Dynole 34-2 for 48 hours. Viability was normalized to vehicle-treated cells with experiments performed in duplicates. Human CD34-positive (CD34+) hematopoietic stem and progenitors from healthy donors (N=3) were used as controls. […]

[3] = tested on: Human CD34-positive (CD34+) hematopoietic stem and progenitors; assay: as above; format: cell-based; set-up: Relative % viable cells: dose or concentration left out as unconfirmed; details: 48 h
Protocol: as §1

[4] = tested on: normal hematopoietic cells of WT mice; assay: Normal hematopoiesis in treated wild-type mice (thymus and bone marrow populations); format: in vivo
[5] = tested on: patient-derived ETP-ALL and T-ALL xenografts; assay: Relative viability and LC50 on patient-derived ETP-ALL and T-ALL xenografts, 48 h; format: cell-based, human; set-up: Relative % viable cells: unit of the concentration uncertain; details: for CC50: Homo sapiens, read-out: LC50 Dynole 34-2
Description: patient-derived (a ) ETP- ALL1 and (b) T-ALL 2 xenografts treated with increasing concentration of […]
Viability was normalized to vehicle-treated cells with experiments performed in duplicates. Human CD34-positive (CD34+) hematopoietic stem and progenitors from healthy donors (N=3) were used as controls. […]

[6] = tested on: pSTAT5 in patient-derived ETP-ALL and T-ALL cells; assay: IL-7-induced pSTAT5 in human ETP-ALL and T-ALL xenograft cells; format: cell-based; details: for pSTAT5 relative expression, FOLD: fold over unstimulated
Protocol: Splenocytes from secondary xenografts were processed as previously described. […] Flow cytometric analysis of surface IL-7R levels and intracellular levels of pSTAT5 were performed as described in the FACS analysis section. For activation of NOTCH1-mediated signalling, 5 × 10^5 rested leukemia cells were seeded on OP9-DL1 stromal cells. Co-culture on OP9 stromal cells was used as a negative control. After 16 h of co-culture, leukemia cells were washed twice using cold PBS 1×. Flow cytometric analysis of NOTCH1 expression and intracellular levels of HES1 were performed as described in the FACS analysis section.

[7] = Pharmacokinetic analysis of serum levels after a single intraperitoneal dose; format: in vivo; details: ip, mouse, single intraperitoneal dose 30 mg/Kg
Protocol: All experiments were pre-approved by the University of Melbourne Animal Ethics Committee (Ethics ID: 0911153.1). […] Five different time points were chosen to measure drug level: 15, 30, 60 120 and 240 min after intraperitoneal injection of the recipients. At each time points, treated mice were killed by lethal injection of 0.01 mL/g of Lethobarb® (325 mg pentobarbitone sodium/mL). Following this, blood was collected via intra-cardiac puncture, blood was then allowed to clot at room temperature for 15 min, then centrifuged at 1500 × g for 6 min to separate out the cells and serum. The serum was collected, weighed, snap frozen in dry ice and stored at −80 °C.
Drug-free mouse serum was used as negative controls. Serum blanks, including calibration standard and quality control samples, were prepared by protein precipitation. Selectivity was evaluated by comparing chromatograms of six blank blood samples from six different sources to make sure there were no significant interfering peaks at retention time of analysis. The maximum serum concentration (Cmax) and the time to reach Cmax (Tmax) were directly obtained from the experimental data. The time needed for 50% reduction in the serum concentration (terminal half-life; T1/2) was calculated from the mean values (n = 5) using GraphPad Prism 8.

For `CCCCCCCCNC(=O)C(C#N)=Cc1cn(CCCN(C)C)c2ccccc12` [Dynole 34-2, 2-Cyano-N-octyl-3-(1-(3-dimethylaminopropyl)-1H-indol-3-yl)-acrylamide], the “proportion of GFP^hi cells in DN3a thymocytes” value ([1]; H2B-GFP;Lmo2^Tg mice, result in words) was “did not affect”, the “% GFPhi cells in DN3a population” value ([1]; mouse, in vivo) was 1.5% and 3.3% and 0.2% and 1.3% and the “repopulation activity and leukemogenicity of GFP^hi DN3a thymocytes” value ([1]; result in words) was “significantly impaired”. For the same compound, the viability at 48 h, 0.04 mM ([2]; CD34, dose 0.04 mM, read-out: Relative % viable cells) was 99.5%, the viability at 48 h, 0.2 mM ([2]; CD34, dose 0.2 mM, read-out: Relative % viable cells) was 99.5% and the viability at 48 h, 0.04 mM ([2]; Relative % viable cells) was 99.4%. The viability at 48 h, 0.2 mM ([2]; Relative % viable cells) was 98.9%, the “Relative % viable cells” value [3] was 98.8% and the “Absolute numbers in the thymus: DN” value ([4]; Supplementary Figure 5a-b) was 6020000 and 5580000 and 7110000. For the same compound, the “Absolute numbers in the thymus: DN1” value ([4]; Supplementary Figure 5a-b) was 511000 and 452000 and 707000, the “Absolute numbers in the thymus: DN2” value ([4]; Supplementary Figure 5a-b) was 47600 and 47100 and 78500 and the “Absolute numbers in the thymus: DN4” value ([4]; Supplementary Figure 5a-b) was 3000000 and 2950000 and 3730000. For the same compound, the “Absolute numbers in the thymus: DP” value ([4]; Supplementary Figure 5a-b) was 102000000 and 86500000 and 114000000, the “Absolute numbers in the thymus: SP” value ([4]; Supplementary Figure 5a-b) was 11300000 and 9900000 and 12100000 and the “Absolute numbers in the bone marrow: B cells” value ([4]; Supplementary Figure 5c-d) was 6210000 and 6630000 and 5010000. For the same compound, the “Absolute numbers in the bone marrow: MPP2” value ([4]; Supplementary Figure 5c-d) was 32800 and 19900 and 19000, the “Absolute numbers in the bone marrow: MPP3” value ([4]; Supplementary Figure 5c-d) was 31000 and 22000 and 23000 and the “Absolute numbers in the bone marrow: MPP4” value ([4]; Supplementary Figure 5c-d) was 146000 and 93900 and 87200. For the same compound, the “Absolute numbers in the bone marrow: Myeloid cells” value ([4]; Supplementary Figure 5c-d) was 9680000 and 8860000 and 9360000, the “Absolute numbers in the bone marrow: T cells” value ([4]; Supplementary Figure 5c-d) was 1060000 and 911000 and 1020000 and the “effect on differentiated and progenitor cells in thymus and bone marrow” value ([4]; non-tumour-bearing mice, result in words) was “no detrimental effect”. The “Relative % viable cells” value ([5]; ALL8, dose 0.04 (unit uncertain)) was 90.4% and 94.4%, the “Relative % viable cells” value ([5]; ALL8, dose 0.2 (unit uncertain)) was 80.81% and 92.6% and the “Relative % viable cells” value ([5]; ALL8, dose 1 (unit uncertain)) was 72.11% and 72.9% and 110.2%. The “Relative % viable cells” value ([5]; ALL8, dose 5 (unit uncertain)) was 59.7% and 59.2%, the “Relative % viable cells” value ([5]; ALL8, dose 125 (unit uncertain)) was 1.3% and 3.1% and 2.3% and the “Relative % viable cells” value ([5]; ALL29, dose 0.04 (unit uncertain)) was 101.7% and 96.7%. For the same compound, the “Relative % viable cells” value ([5]; ALL29, dose 0.2 (unit uncertain)) was 96.7% and 101.5%, the “Relative % viable cells” value ([5]; ALL29, dose 5 (unit uncertain)) was 40.7% and 42.8% and the “Relative % viable cells” value ([5]; ALL29, dose 125 (unit uncertain)) was 9.1% and 6.3% and 3%. For the same compound, the “Relative % viable cells” value ([5]; ALL33, dose 0.04 (unit uncertain)) was 93.7% and 90.9%, the “Relative % viable cells” value ([5]; ALL33, dose 0.2 (unit uncertain)) was 85.9% and the “Relative % viable cells” value ([5]; ALL33, dose 5 (unit uncertain)) was 38.4% and 45.6%. The “Relative % viable cells” value ([5]; ALL33, dose 25 (unit uncertain)) was 25.8% and 17.5%, the “Relative % viable cells” value ([5]; ALL33, dose 125 (unit uncertain)) was 0% and the “Relative % viable cells” value ([5]; ETP1, dose 0.04 (unit uncertain)) was 101.2%. The “Relative % viable cells” value ([5]; ETP1, dose 0.2 (unit uncertain)) was 100.4% and 100%, the “Relative % viable cells” value ([5]; ETP1, dose 1 (unit uncertain)) was 99.9% and 99.8% and the “Relative % viable cells” value ([5]; ETP1, dose 5 (unit uncertain)) was 98.2%. For the same compound, the “Relative % viable cells” value ([5]; ETP1, dose 25 (unit uncertain)) was 36.3% and 35.6%, the “Relative % viable cells” value ([5]; ETP1, dose 125 (unit uncertain)) was 7% and 0% and the “Relative % viable cells” value ([5]; ETP5, dose 0.04 (unit uncertain)) was 102.7%. The “Relative % viable cells” value ([5]; ETP5, dose 0.2 (unit uncertain)) was 95.7% and 97.2%, the “Relative % viable cells” value ([5]; ETP5, dose 1 (unit uncertain)) was 97.7% and the “Relative % viable cells” value ([5]; ETP5, dose 5 (unit uncertain)) was 90.9% and 92.8%. For the same compound, the “Relative % viable cells” value ([5]; ETP5, dose 25 (unit uncertain)) was 25.9% and 13.9%, the “Relative % viable cells” value ([5]; ETP5, dose 125 (unit uncertain)) was 2.9% and 6.9% and 3.5% and the “Relative % viable cells” value ([5]; ETP12, dose 0.04 (unit uncertain)) was 107.6% and 104.3%. The “Relative % viable cells” value ([5]; ETP12, dose 0.2 (unit uncertain)) was 95.8% and 90.7%, the “Relative % viable cells” value ([5]; ETP12, dose 5 (unit uncertain)) was 77.5% and the “Relative % viable cells” value ([5]; ETP12, dose 25 (unit uncertain)) was 2.7% and 1.6% and 1.1%. The “Relative % viable cells” value ([5]; ETP12, dose 125 (unit uncertain)) was 2.6% and 7.9% and 2%, the “Relative % viable cells” value ([5]; ETP13, dose 0.04 (unit uncertain)) was 91.2% and 89.4% and the “Relative % viable cells” value ([5]; ETP13, dose 0.2 (unit uncertain)) was 91.8% and 87.5%. For the same compound, the “Relative % viable cells” value ([5]; ETP13, dose 1 (unit uncertain)) was 90.4% and 102.1%, the “Relative % viable cells” value ([5]; ETP13, dose 5 (unit uncertain)) was 60.7% and 66.4% and 84.4% and the “Relative % viable cells” value ([5]; ETP13, dose 25 (unit uncertain)) was 4.2% and 3.5%. For the same compound, the “Relative % viable cells” value ([5]; ETP13, dose 125 (unit uncertain)) was 1.5% and 2.3% and 0.7%, the “Relative % viable cells” value ([5]; ETP14, dose 0.04 (unit uncertain)) was 74% and 80.7% and 108.4% and the “Relative % viable cells” value ([5]; ETP14, dose 0.2 (unit uncertain)) was 80.8% and 85.9%. The “Relative % viable cells” value ([5]; ETP14, dose 1 (unit uncertain)) was 56.6% and 73.2% and 82.4%, the “Relative % viable cells” value ([5]; ETP14, dose 5 (unit uncertain)) was 58.1% and 85.7% and 56% and the “Relative % viable cells” value ([5]; ETP14, dose 25 (unit uncertain)) was 10.8% and 11.5%. The CC50 ([5]; ALL8, Relapse, Mature) was 5.76 µM, the CC50 ([5]; ALL29, Diagnosis, Mature) was 4.51 µM and the CC50 ([5]; ALL33, Diagnosis, Mature) was 2.43 µM. It also gave a CC50 ([5]; ETP1, Diagnosis, ETP) of 19.9 µM, a CC50 ([5]; ETP5, Diagnosis, ETP) of 49.9 µM and a CC50 ([5]; ETP12, Diagnosis, ETP) of 4.26 µM. For the same compound, the CC50 ([5]; ETP13, Diagnosis, ETP) was 7.05 µM, the CC50 ([5]; ETP14, Diagnosis, ETP) was 5.25 µM and the “pSTAT5 relative expression, MFI” value ([6]; ALL8) was 3715 MFI and 3714 MFI. The “pSTAT5 relative expression, FOLD” value ([6]; ALL8) was 1.22 FOLD, the “pSTAT5 relative expression, MFI” value ([6]; ALL16) was 2090 MFI and 2194 MFI and the “pSTAT5 relative expression, FOLD” value ([6]; ALL16) was 0.95 FOLD and 0.91 FOLD. The “pSTAT5 relative expression, MFI” value ([6]; ALL29) was 3568 MFI and 3339 MFI, the “pSTAT5 relative expression, FOLD” value ([6]; ALL29) was 1.36 FOLD and 1.45 FOLD and the “pSTAT5 relative expression, MFI” value ([6]; ALL31) was 2246 MFI and 2071 MFI. For the same compound, the “pSTAT5 relative expression, FOLD” value ([6]; ALL31) was 1.23 FOLD and 1.34 FOLD, the “pSTAT5 relative expression, MFI” value ([6]; ALL33) was 2163 MFI and 2294 MFI and the “pSTAT5 relative expression, FOLD” value ([6]; ALL33) was 1.35 FOLD and 1.27 FOLD. The “pSTAT5 relative expression, MFI” value ([6]; ETP1) was 6780 MFI and 6557 MFI, the “pSTAT5 relative expression, FOLD” value ([6]; ETP1) was 2.05 FOLD and 2.11 FOLD and the “pSTAT5 relative expression, MFI” value ([6]; ETP5) was 3059 MFI and 3334 MFI. The “pSTAT5 relative expression, FOLD” value ([6]; ETP5) was 1.58 FOLD and 1.45 FOLD, the “pSTAT5 relative expression, MFI” value ([6]; ETP8) was 6837 MFI and 6719 MFI and the “pSTAT5 relative expression, FOLD” value ([6]; ETP8) was 2.21 FOLD and 2.25 FOLD. For the same compound, the “pSTAT5 relative expression, MFI” value ([6]; ETP12) was 6017 MFI and 6210 MFI, the “pSTAT5 relative expression, FOLD” value ([6]; ETP12) was 2.47 FOLD and 2.39 FOLD and the “pSTAT5 relative expression, MFI” value ([6]; ETP13) was 7147 MFI and 4013 MFI. The “pSTAT5 relative expression, FOLD” value ([6]; ETP13) was 0.99 FOLD and 1.76 FOLD, the “pSTAT5 relative expression, MFI” value ([6]; ETP14) was 7024 MFI and 6660 MFI and the “pSTAT5 relative expression, FOLD” value ([6]; ETP14) was 1.46 FOLD and 1.54 FOLD. The pSTAT5 protein levels ([6]; immature and mature subtypes of human T-ALL, 1 h pre-treatment, result in words) was “significantly decreased”, the Cmax ([7]; read-out: average maximum concentration (Cmax) in serum) was > 4 µM and the half-life ([7]; read-out: estimated half-life in serum) was 30 min.
